Broadly, the DC50 is the concentration at which degradation of the target reaches its halfway point. The low end stands for a more potent degrader, the high end for a less potent degrader.

The results in this text go back to patent US12521440B2, “Degradation of bruton's tyrosine kinase (BTK) by conjugation of BTK inhibitors with E3 ligase ligand and methods of use” (BeOne Medicines I GmbH, priority 2021, dated 2026).

Molecules are shown by their SMILES.

The target in one assay is T1, BTK (Homo sapiens, UniProt Q06187).
T1 construct: endogenous in cells; host or cells: TMD-8 cells
The experiment in a line: BTK degradation in TMD-8 cells (HTRF assay). The class given is cell-based. Particulars: 6 h treatment, HTRF BTK degradation IC50 (DC50). Here is the method: TMD-8 cells were treated with compounds diluted in 0.2% DMSO, dilution was done according to the following protocol: (1) making 500×stock solution in DMSO from 1 mM by 6-fold dilution, total 8 doses were included; (2) making 2×solution in cell culture medium by transferring 0.5 μl 500×stock solution into 125 μl medium; (3) adding 15 μl of 2×solution to cells for incubation of 6 h.
After 6 h treatment, 10 μl 4×lysis buffer was added to each well; the plate was sealed and incubated for 30 min at room temperature on a plate shaker; Once the cells was lysed, 16 μL of cell lysate were transferred to a PE 384-well HTRF detection plate; 4 μL of pre-mixed HTRF antibodies were added to each well; the plate was covered with a plate sealer, and then spinned at 1000 rpm for 1 min, then incubated overnight at room temperature; the results were read on BMG PheraStar with HTRF protocol (337 nm-665 nm-620 nm).
(§1) The IC50 (DC50) value of a compound can be obtained by fitting the following equation Y=Bottom+(TOP−Bottom)/(1+((IC50/X)^hillslope)) wherein, X and Y are known values, and IC50, Hillslope, Top and Bottom are the parameters obtained by fitting with software. Y is the inhibition percentage (calculated from the equation), X is the concentration of the compound; IC50 is the concentration of the compound when the 50% inhibition is reached. The smaller the IC50 value is, the stronger the inhibitory ability of the compound is. Vice versa, the higher the IC50 value is, the weaker the ability the inhibitory ability of the compound is; Hillslope represents the slope of the fitted curve, generally around 1*; Bottom represents the minimum value of the curve obtained by data fitting, which is generally 0%±20%; Top represents the maximum value of the curve obtained by data fitting, which is generally 100%±20%. The experimental data were fitted by calculating and analyzing with Dotmatics data analysis software. HEK-293 Cell Treatment
Background: In TR-FRET formats the signal depends on donor and acceptor labels being close together.

Another assay relates to HEK-293 cells. The experiment in a line: HEK-293 cytotoxicity detection (CellTiter-Glo). Particulars: Homo sapiens, 72 h incubation, read-out: HEK293. Type of assay: cell-based.
From the text: as §1
HEK-293 cells were treated with compounds diluted in 0.2% DMSO, dilution was done according to the following protocol: (1) making 500×stock solution in DMSO from 5 mM by 4-fold dilution, total 8 doses were included; (2) making 2×solution in cell culture medium by transferring 0.5 ul 500×stock solution into 125 ul medium; (3) adding 50 ul of 2×solution to cells for incubation of 72 h.
25 μl of the CellTiter-Glo® Reagent [(Promega)—Cat No. G7572] was added to each well in the 96-well plate. The contents were mixed for 2 minutes on an orbital shaker to induce cell lysis. The plate was then allowed to incubate at room temperature for 10 minutes to stabilize luminescent signal. Luminescence was recorded on BMG PheraStar with luminescence protocol.
as §1, with “IC50” for “IC50 (DC50)”, “Wherein,” for “wherein,”, “software.” for “software. HEK-293 Cell Treatment”
In general terms: In ATP-based viability assays light output follows the ATP content of the culture.

T1 sequence (Q06187 whole entry): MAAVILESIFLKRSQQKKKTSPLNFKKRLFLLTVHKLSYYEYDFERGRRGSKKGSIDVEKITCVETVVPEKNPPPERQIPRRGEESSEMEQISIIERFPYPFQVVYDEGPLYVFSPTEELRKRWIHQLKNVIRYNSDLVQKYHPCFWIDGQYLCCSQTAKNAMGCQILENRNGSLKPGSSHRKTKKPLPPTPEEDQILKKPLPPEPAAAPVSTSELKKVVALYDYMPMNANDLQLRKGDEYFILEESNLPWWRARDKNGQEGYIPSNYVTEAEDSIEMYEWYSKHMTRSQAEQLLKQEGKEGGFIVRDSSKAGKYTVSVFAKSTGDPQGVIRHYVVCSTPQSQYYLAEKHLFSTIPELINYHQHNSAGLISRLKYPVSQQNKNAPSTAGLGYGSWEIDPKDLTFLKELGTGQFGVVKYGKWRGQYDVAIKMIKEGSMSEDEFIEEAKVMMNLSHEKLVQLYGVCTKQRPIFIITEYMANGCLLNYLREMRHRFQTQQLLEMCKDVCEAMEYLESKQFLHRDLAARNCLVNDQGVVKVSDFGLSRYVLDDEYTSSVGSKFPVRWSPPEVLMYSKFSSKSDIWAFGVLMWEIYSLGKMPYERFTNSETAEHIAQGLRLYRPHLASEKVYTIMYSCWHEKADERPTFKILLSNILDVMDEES

Compound `Cc1cc(-c2cc(Nc3ccc(N4CCN(C5CN(C6CN(c7ccc(C8CCC(=O)NC8=O)cc7)C6)C5)CC4)cn3)ncn2)ccc1[C@@H](C)NC(=O)c1nc(C(C)(C)C)no1` (stereo partly drawn) [Example 42, 3-(tert-butyl)-N-((1R)-1-(4-(6-((5-(4-(1′-(4-(2,6-dioxopiperidin-3-yl)phenyl)-[1,3′-biazetidin]-3-yl)piperazin-1-yl)pyridin-2-yl)amino)pyrimidin-4-yl)-2-methylphenyl)ethyl)-1,2,4-oxadiazole-5-carboxamide] yielded a DC50 at BTK of 1.2 nM. Also, in the assay on HEK-293 cells, the IC50 is over 10000 nM. In the case of `Cc1cc(-c2cc(Nc3ccc(N4CC(CN5CCN(c6ccc(N7CCC(=O)NC7=O)cc6)CC5)C4)cn3)ncn2)ccc1[C@@H](C)NC(=O)c1nc(C(C)(C)C)no1` [Example 20, (R)-3-(tert-butyl)-N-(1-(4-(6-((5-(3-((4-(4-(2,4-dioxotetrahydropyrimidin-1(2H)-yl)phenyl)piperazin-1-yl)methyl)azetidin-1-yl)pyridin-2-yl)amino)pyrimidin-4-yl)-2-methylphenyl)ethyl)-1,2,4-oxadiazole-5-carboxamide], the DC50 at BTK worked out at 1.23 nM. Also, in the assay with HEK-293 cells, the IC50 is over 10000 nM. In turn, `Cc1cc(-c2cc(Nc3ccc(N4CCC5(CCN(CC6CCN(c7ccc(N8CCC(=O)NC8=O)cc7)CC6)C5)CC4)cn3)ncn2)ccc1[C@@H](C)NC(=O)c1nc(C(C)(C)C)no1` [Example 31, (R)-3-(tert-butyl)-N-(1-(4-(6-((5-(2-((1-(4-(2,4-dioxotetrahydropyrimidin-1(2H)-yl)phenyl)piperidin-4-yl)methyl)-2,8-diazaspiro[4.5]decan-8-yl)pyridin-2-yl)amino)pyrimidin-4-yl)-2-methylphenyl)ethyl)-1,2,4-oxadiazole-5-carboxamide] displayed a DC50 on BTK of 1.99 nM. In addition, the IC50 in the assay on HEK-293 cells is 1870 nM.

With `Cc1cc(-c2ncnc(Nc3ccc(N4CCN(CC5CCN(c6ccc(N7CCC(=O)NC7=O)cc6)CC5)CC4)cn3)c2F)ccc1[C@@H](C)NC(=O)c1nc(C(C)(C)C)no1` [Example 70, (R)-3-(tert-butyl)-N-(1-(4-(6-((5-(4-((1-(4-(2,4-dioxotetrahydropyrimidin-1(2H)-yl)phenyl)piperidin-4-yl)methyl)piperazin-1-yl)pyridin-2-yl)amino)-5-fluoropyrimidin-4-yl)-2-methylphenyl)ethyl)-1,2,4-oxadiazole-5-carboxamide], at BTK, the 50% degradation concentration (DC50) is over 2000 nM. Moreover, the IC50 in the assay with HEK-293 cells was over 10000 nM. In the same order, the values of `Cc1cc(-c2cc(Nc3ccc(N4CC5(CCN(CC6CCN(c7ccc(N8CCC(=O)NC8=O)cc7)CC6)CC5)C4)cn3)ncn2)ccc1[C@@H](C)NC(=O)c1nc(C(C)(C)C)no1` [Example 33, (R)-3-(tert-butyl)-N-(1-(4-(6-((5-(7-((1-(4-(2,4-dioxotetrahydropyrimidin-1(2H)-yl)phenyl)piperidin-4-yl)methyl)-2,7-diazaspiro [3.5]nonan-2-yl)pyridin-2-yl)amino)pyrimidin-4-yl)-2-methylphenyl)ethyl)-1,2,4-oxadiazole-5-carboxamide] are 1.3 nM and over 10000 nM. The compound `Cc1cc(-c2cc(Nc3ccc(N4CCC5(CC4)CN(CC4CCN(c6ccc(N7CCC(=O)NC7=O)cc6)CC4)C5)cn3)ncn2)ccc1[C@@H](C)NC(=O)c1nc(C(C)(C)C)no1` [Example 32, (R)-3-(tert-butyl)-N-(1-(4-(6-((5-(2-((1-(4-(2,4-dioxotetrahydropyrimidin-1(2H)-yl)phenyl)piperidin-4-yl)methyl)-2,7-diazaspiro [3.5]nonan-7-yl)pyridin-2-yl)amino)pyrimidin-4-yl)-2-methylphenyl)ethyl)-1,2,4-oxadiazole-5-carboxamide] had a DC50 at BTK of 1.73 nM. Also, the IC50 with HEK-293 cells stood at 1910 nM. For the compound `Cc1cc(-c2cc(Nc3ccc(N4CC5(CN(C(=O)C6CCN(c7ccc(N8CCC(=O)NC8=O)cc7)C6)C5)C4)cn3)ncn2)ccc1[C@@H](C)NC(=O)c1nc(C(C)(C)C)no1` (stereo partly drawn) [Example 37, 3-(tert-butyl)-N-((1R)-1-(4-(6-((5-(6-(1-(4-(2,4-dioxotetrahydropyrimidin-1(2H)-yl)phenyl)pyrrolidine-3-carbonyl)-2,6-diazaspiro [3.3]heptan-2-yl)pyridin-2-yl)amino)pyrimidin-4-yl)-2-methylphenyl)ethyl)-1,2,4-oxadiazole-5-carboxamide], on BTK, it took 0.835 nM to reach half-maximal degradation (DC50). In addition, the IC50 in the assay with HEK-293 cells was over 10000 nM. In the same order, the values of `Cc1cc(-c2cc(Nc3ccc(N4CCN(C(=O)C5CN(c6cc(F)c(C7CCC(=O)NC7=O)c(F)c6)C5)CC4)cn3)ncn2)ccc1[C@@H](C)NC(=O)c1nc(C(C)(C)C)no1` (stereo partly drawn) [Example 27, 3-(tert-butyl)-N-((1R)-1-(4-(6-((5-(4-(1-(4-(2,6-dioxopiperidin-3-yl)-3,5-difluorophenyl)azetidine-3-carbonyl)piperazin-1-yl)pyridin-2-yl)amino)pyrimidin-4-yl)-2-methylphenyl)ethyl)-1,2,4-oxadiazole-5-carboxamide] are 3.57 nM and over 10000 nM. For `Cc1cc(-c2cc(Nc3ccc(N4CCN([C@H]5C[C@@H](c6ccc(N[C@@H]7CCC(=O)NC7=O)cc6)C5)CC4)cn3)ncn2)ccc1[C@@H](C)NC(=O)c1nc(C(C)(C)C)no1` [Example 52, 3-(tert-butyl)-N—((R)-1-(4-(6-((5-(4-((1S,3s)-3-(4-(((R)-2,6-dioxopiperidin-3-yl)amino)phenyl)cyclobutyl)piperazin-1-yl)pyridin-2-yl)amino)pyrimidin-4-yl)-2-methylphenyl)ethyl)-1,2,4-oxadiazole-5-carboxamide], in that order: 3.04 nM and over 10000 nM. For `Cc1cc(-c2cc(Nc3ccc(N4CCN(C(=O)C5CN(c6ccc(N7CCC(=O)NC7=O)cc6)C5)CC4)cn3)ncn2)ccc1[C@@H](C)NC(=O)c1nc(C(C)(C)C)no1` [Example 25, (R)-3-(tert-butyl)-N-(1-(4-(6-((5-(4-(1-(4-(2,4-dioxotetrahydropyrimidin-1(2H)-yl)phenyl)azetidine-3-carbonyl)piperazin-1-yl)pyridin-2-yl)amino)pyrimidin-4-yl)-2-methylphenyl)ethyl)-1,2,4-oxadiazole-5-carboxamide], in that order: 0.935 nM and over 10000 nM. Turning to `Cc1cc(-c2cc(Nc3ccc(N4CCN(C5CN(C6CN(c7ccc(N8CCC(=O)NC8=O)cc7)C6)C5)CC4)cn3)ncn2)ccc1[C@@H](C)NC(=O)c1nc(C(C)(C)C)no1` [Example 39, (R)-3-(tert-butyl)-N-(1-(4-(6-((5-(4-(1′-(4-(2,4-dioxotetrahydropyrimidin-1(2H)-yl)phenyl)-[1,3′-biazetidin]-3-yl)piperazin-1-yl)pyridin-2-yl)amino)pyrimidin-4-yl)-2-methylphenyl)ethyl)-1,2,4-oxadiazole-5-carboxamide], on BTK, the DC50 is 0.209 nM. For the same compound, in the assay on HEK-293 cells, the IC50 is over 10000 nM. As for `Cc1cc(-c2cc(Nc3ccc(N4CCN(CCc5cc(F)c([C@H]6CCC(=O)NC6=O)c(F)c5)CC4)cn3)ncn2)ccc1[C@@H](C)NC(=O)c1nc(C(C)(C)C)no1` [Example 46, 3-(tert-butyl)-N—((R)-1-(4-(6-((5-(4-(4-((R)-2,6-dioxopiperidin-3-yl)-3,5-difluorophenethyl)piperazin-1-yl)pyridin-2-yl)amino)pyrimidin-4-yl)-2-methylphenyl)ethyl)-1,2,4-oxadiazole-5-carboxamide], in the assay on HEK-293 cells, the IC50 is over 10000 nM. On the same count and under the same terms, to `Cc1cc(-c2cc(Nc3cccc(N4CCN(CC5CCN(c6ccc(N7CCC(=O)NC7=O)cc6)CC5)CC4)c3)ncn2)c(F)cc1[C@@H](C)NC(=O)c1nc(C(C)(C)C)no1` [Example 5, (R)-3-(tert-butyl)-N-(1-(4-(6-((3-(4-((1-(4-(2,4-dioxotetrahydropyrimidin-1(2H)-yl)phenyl)piperidin-4-yl)methyl)piperazin-1-yl)phenyl)amino)pyrimidin-4-yl)-5-fluoro-2-methylphenyl)ethyl)-1,2,4-oxadiazole-5-carboxamide] belongs over 10000 nM.
